Results published in patent US20240140957A1, “BRIDGED COMPOUNDS AS KRAS G12D INHIBITOR AND DEGRADER AND THE USE THEREOF” (BeiGene Switzerland GmbH, priority 2021, published 2024).

Assays:
Format in all cases: binding
[1] = molecular target: WT KRAS:SOS1 (Homo sapiens, UniProt P01116); assay: KRAS WT:SOS1 GDP TR-FRET assay; conditions: GST-WT KRAS 37.5 nM, GDP 10 μM, His-SOS1 18 nM
Description: (§1) KRAS:SOS1 GDP TR-FRET Assay
(§2) This assay was used to identify compounds which competitively interact with the binding of KRAS protein to SOS1 in the presence of GDP. […] All protein and reaction solutions were prepared in assay buffer containing DPBS pH7.5, 0.1% BSA, and 0.05% Tween 20. Purified GST-tagged WT KRAS or KRAS G12D protein (37.5 nM final assay concentration) and GDP (Sigma, 10 μM final assay concentration) mixture, a serially diluted compound (top final concentration is 50 μM or 10 uM, 3-fold serially diluted, 10 points) and His-tagged SOS1 protein (18 nM final assay concentration) were added into the assay plates (384 well microplate, black, Corning) sequentially. Plates are incubated at 24° C. for 1 hr. Following the incubation, Mab Anti-GST-Tb cryptate (Cisbio) and […] (Cisbio) were added and further incubated at 24° C. for another 1 hr. The TR-FRET signals (ex337 nm, em665 nm/620 nm) were read on BMG PHERAstar FSX instrument. The inhibition percentage of KRAS protein binding with SOS1 in presence of increasing concentrations of compounds was calculated based on the ratio of fluorescence at 665 nm to that at 620 nm. The IC50 value of each compound was calculated from fitting the data to the four-parameter logistic model by Dotmatics.

[2] = molecular target: KRAS G12D:SOS1 (Homo sapiens, UniProt P01116, G12D); assay: KRAS G12D:SOS1 GDP TR-FRET assay; conditions: GST-KRAS G12D 37.5 nM, GDP 10 μM, His-SOS1 18 nM
Chain of KRAS G12D:SOS1 (P01116 1-188 isoform P01116-2 G12D): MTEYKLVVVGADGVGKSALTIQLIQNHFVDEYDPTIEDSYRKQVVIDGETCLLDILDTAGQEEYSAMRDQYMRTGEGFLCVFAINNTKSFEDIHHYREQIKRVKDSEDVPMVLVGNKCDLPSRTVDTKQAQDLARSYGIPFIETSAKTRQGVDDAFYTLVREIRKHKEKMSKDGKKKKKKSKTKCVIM
Description: as §1, §2

[3] = molecular target: GDP-loaded KRAS G12D (Homo sapiens, UniProt P01116, G12D); assay: KRAS G12D Probe Displacement Assay; conditions: KRAS G12D 0.5 nM, biotinylated probe 2 4 nM; Table 6 letters; read-out: KRAS G12D Probe Displacement Assay IC50 (class)
Chain of GDP-loaded KRAS G12D (P01116 1-188 isoform P01116-2 G12D): as above

Chain of WT KRAS:SOS1 (P01116 1-188 isoform P01116-2): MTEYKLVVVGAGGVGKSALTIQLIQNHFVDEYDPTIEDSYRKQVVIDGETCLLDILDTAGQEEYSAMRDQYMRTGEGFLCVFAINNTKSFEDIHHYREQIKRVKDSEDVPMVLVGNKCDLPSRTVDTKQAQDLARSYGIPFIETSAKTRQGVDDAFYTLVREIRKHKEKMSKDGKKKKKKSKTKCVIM

| Structure (SMILES) | IC50 [1] [µM] | IC50 [2] [µM] | IC50 [3] [µM] |
| --- | --- | --- | --- |
| CN(C)C1CN(c2nc(N3CCNCC3)c3cc(Cl)c(-c4cc(O)cc5ccccc45)c(F)c3n2)C1 [Example E2, 4-(6-chloro-2-(3-(dimethylamino)azetidin-1-yl)-8-fluoro-4-(piperazin-1-yl)quinazolin-7-yl)naphthalen-2-ol] | > 50 | 4.85 |  |
| C[C@@H](CN1CC(F)(F)C1)Oc1nc(N2CC3CCC(C2)N3)c2cc(Cl)c(-c3ccc(F)c4sc(N)nc34)c(F)c2n1 [Example E32, 4-(4-(3,8-diazabicyclo[3.2.1]octan-3-yl)-6-chloro-2-(((S)-1-(3,3-difluoroazetidin-1-yl)propan-2-yl)oxy)-8-fluoroquinazolin-7-yl)-7-fluorobenzo[d]thiazol-2-amine] | > 10 | 0.081 |  |
| Nc1nc2c(-c3c(Cl)cc4c(N5CCNCC5)nc(OCCCN5CCN(CCCOCCC(=O)NCCOCCNC(=O)CCCC[C@@H]6SC[C@@H]7NC(=O)N[C@@H]76)CC5)nc4c3F)ccc(F)c2s1 [Example E56, N-(2-(2-(3-(3-(4-(3-((7-(2-amino-7-fluorobenzo[d]thiazol-4-yl)-6-chloro-8-fluoro-4-(piperazin-1-yl)quinazolin-2-yl)oxy)propyl)piperazin-1-yl)propoxy)propanamido)ethoxy)ethyl)-5-((3 aS, 4S,6aR)-2-oxohexahydro-1H-thieno[3,4-d]imidazol-4-yl)pentanamide] | 0.37 | 0.021 |  |
| CS(=O)(=O)N1CCN(c2nc(OC[C@@H]3CCCN3CCCOCCC(=O)NCCOCCNC(=O)CCCC[C@@H]3SC[C@@H]4NC(=O)N[C@@H]43)nc3c2CCN(c2cccc4cccc(Cl)c24)C3)C[C@@H]1CC#N [Example E57, N-(2-(2-(3-(3-((S)-2-(((7-(8-chloronaphthalen-1-yl)-4-((S)-3-(cyanomethyl)-4-(methylsulfonyl)piperazin-1-yl)-5,6,7,8-tetrahydropyrido[3,4-d]pyrimidin-2-yl)oxy)methyl)pyrrolidin-1-yl)propoxy)propanamido)ethoxy)ethyl)-5-((3aS,4S,6aR)-2-oxohexahydro-1H-thieno[3,4-d]imidazol-4-yl)pentanamide] | 0.13 | > 10 |  |
| CC(=O)N1CCCC(COc2nc(N3CC4CCC(C3)N4)c3cc(C(F)(F)F)c(-c4ccc(F)c5sc(N)nc45)c(F)c3n2)C1 (centres unmarked) [Example E223, 1-(3-(((7-(2-amino-7-fluorobenzo[d]thiazol-4-yl)-4-(3,8-diazabicyclo[3.2.1]octan-3-yl)-8-fluoro-6-(trifluoromethyl)quinazolin-2-yl)oxy)methyl)piperidin-1-yl)ethan-1-one] |  |  | < 0.05 |
| Cc1cc(N)nc(-c2c(Cl)cc3c(N4CC5CCC(C4)N5)nc(OCC45COC(C4)C5)nc3c2F)c1C(F)(F)F [Example E224, 6-(2-((2-oxabicyclo[2.1.1]hexan-4-yl)methoxy)-4-(3,8-diazabicyclo[3.2.1]octan-3-yl)-6-chloro-8-fluoroquinazolin-7-yl)-4-methyl-5-(trifluoromethyl)pyridin-2-amine] |  |  | < 0.05 |
| Cc1cc(N)nc(-c2c(Cl)cc3c(N4CC5CCC(C4)N5)nc(OCC4(C)CCC(=O)NC4)nc3c2F)c1C(F)(F)F (centres unmarked) [Example E225, 5-(((7-(6-amino-4-methyl-3-(trifluoromethyl)pyridin-2-yl)-4-(3,8-diazabicyclo[3.2.1]octan-3-yl)-6-chloro-8-fluoroquinazolin-2-yl)oxy)methyl)-5-methylpiperidin-2-one] |  |  | < 0.05 |
| CC(=O)N1CC(COc2nc(N3CC4CCC(C3)N4)c3cc(Cl)c(-c4nc(N)cc(C)c4C(F)(F)F)c(F)c3n2)C1 [Example E226, 1-(3-(((7-(6-amino-4-methyl-3-(trifluoromethyl)pyridin-2-yl)-4-(3,8-diazabicyclo[3.2.1]octan-3-yl)-6-chloro-8-fluoroquinazolin-2-yl)oxy)methyl)azetidin-1-yl)ethan-1-one] |  |  | < 0.05 |
| Cc1cc(N)nc(-c2c(Cl)cc3c(N4CC5CCC(C4)N5)nc(OCC4(CO)CC(F)C4)nc3c2F)c1C(F)(F)F (centres unmarked) [Example E227, (1-(((7-(6-amino-4-methyl-3-(trifluoromethyl)pyridin-2-yl)-4-(3,8-diazabicyclo[3.2.1]octan-3-yl)-6-chloro-8-fluoroquinazolin-2-yl)oxy)methyl)-3-fluorocyclobutyl)methanol] |  |  | < 0.05 |
| Cc1cc(N)nc(-c2c(Cl)cc3c(N4CC5CCC(C4)N5)nc(OCC4CS(=O)(=O)C4)nc3c2F)c1C(F)(F)F [Example E228, 3-(((7-(6-amino-4-methyl-3-(trifluoromethyl)pyridin-2-yl)-4-(3,8-diazabicyclo[3.2.1]octan-3-yl)-6-chloro-8-fluoroquinazolin-2-yl)oxy)methyl)thietane 1,1-dioxide] |  |  | < 0.05 |
| Cc1cc(N)nc(-c2c(Cl)cc3c(N4CC5CCC(C4)N5)nc(OCC45CCC(CC4)OC5)nc3c2F)c1C(F)(F)F [Example E229, 6-(2-((2-oxabicyclo[2.2.2]octan-4-yl)methoxy)-4-(3,8-diazabicyclo[3.2.1]octan-3-yl)-6-chloro-8-fluoroquinazolin-7-yl)-4-methyl-5-(trifluoromethyl)pyridin-2-amine] |  |  | < 0.05 |
| Cc1cc(N)nc(-c2c(Cl)cc3c(N4CC5CCC(C4)N5)nc(OCC4(CO)CCOC4)nc3c2F)c1C(F)(F)F (centres unmarked) [Example E230, (3-(((7-(6-amino-4-methyl-3-(trifluoromethyl)pyridin-2-yl)-4-(3,8-diazabicyclo[3.2.1]octan-3-yl)-6-chloro-8-fluoroquinazolin-2-yl)oxy)methyl)tetrahydrofuran-3-yl)methanol] |  |  | < 0.05 |
| Cc1cc(N)nc(-c2c(Cl)cc3c(N4CC5CCC(C4)N5)nc(OCC4C5COCC54)nc3c2F)c1C(F)(F)F (centres unmarked) [Example E231, 6-(2-((3-oxabicyclo[3.1.0]hexan-6-yl)methoxy)-4-(3,8-diazabicyclo[3.2.1]octan-3-yl)-6-chloro-8-fluoroquinazolin-7-yl)-4-methyl-5-(trifluoromethyl)pyridin-2-amine] |  |  | 0.1 to 1 |
| CC(=O)N1CCC(COc2nc(N3CC4CCC(C3)N4)c3cc(Cl)c(-c4nc(N)cc(C)c4C(F)(F)F)c(F)c3n2)C1 (centres unmarked) [Example E232, 1-(3-(((7-(6-amino-4-methyl-3-(trifluoromethyl)pyridin-2-yl)-4-(3,8-diazabicyclo[3.2.1]octan-3-yl)-6-chloro-8-fluoroquinazolin-2-yl)oxy)methyl)pyrrolidin-1-yl)ethan-1-one] |  |  | < 0.05 |
| COC(C)(CO)COc1nc(N2CC3CCC(C2)N3)c2cc(Cl)c(-c3nc(N)cc(C)c3C(F)(F)F)c(F)c2n1 (centres unmarked) [Example E233, 3-((7-(6-amino-4-methyl-3-(trifluoromethyl)pyridin-2-yl)-4-(3,8-diazabicyclo[3.2.1]octan-3-yl)-6-chloro-8-fluoroquinazolin-2-yl)oxy)-2-methoxy-2-methyl propan-1-ol] |  |  | < 0.05 |
| CC(=O)N1CCCC(COc2nc(N3CC4CCC(C3)N4)c3cc(Cl)c(-c4nc(N)cc(C)c4C(F)(F)F)c(F)c3n2)C1 (centres unmarked) [Example E234, 1-(3-(((7-(6-amino-4-methyl-3-(trifluoromethyl)pyridine-2-yl)-4-(3,8-diazabicyclo[3.2.1]octan-3-yl)-6-chloro-8-fluoroquinazolin-2-yl)oxy)methyl)piperidin-1-yl)ethan-1-one] |  |  | 0.05 to 0.1 |
| CC12CC(COc3nc(N4CC5CCC(C4)N5)c4cc(C(F)(F)F)c(-c5ccc(F)c6sc(N)c(C#N)c56)c(F)c4n3)(CO1)C2 [Example E235, 4-(4-(3,8-diazabicyclo[3.2.1]octan-3-yl)-8-fluoro-2-((1-methyl-2-oxabicyclo[2.1.1]hexan-4-yl)methoxy)-6-(trifluoromethyl)quinazolin-7-yl)-2-amino-7-fluoro benzo[b]thiophene-3-carbonitrile] |  |  | < 0.05 |
| N#Cc1c(N)sc2c(F)ccc(-c3c(C(F)(F)F)cc4c(N5CC6CCC(C5)N6)nc(OCC56COC(C5)C6)nc4c3F)c12 [Example E236, 4-(2-((2-oxabicyclo[2.1.1]hexan-4-yl)methoxy)-4-(3,8-diazabicyclo[3.2.1]octan-3-yl)-8-fluoro-6-(trifluoromethyl)quinazolin-7-yl)-2-amino-7-fluorobenzo [b]thiophene-3-carbonitrile] |  |  | < 0.05 |
| Nc1cc(-c2cc3nc(OC[C@@]45CCCN4C[C@H](F)C5)nc(N4CC5CCC(C4)N5)c3cc2Cl)c(C(F)(F)F)c(C(F)(F)F)c1 [Example E237, 3-(4-(3,8-diazabicyclo[3.2.1]octan-3-yl)-6-chloro-2-(((2R,7aS)-2-fluorotetrahydro-1H-pyrrolizin-7a(5H)-yl)methoxy)quinazolin-7-yl)-4,5-bis (trifluoromethyl) aniline] |  |  | < 0.05 |
